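Following 48 hours of exposure in 96-well plates, responses at five concentrations were used to interpolate endpoints linearly. The concentration for full growth arrest is given as TGI.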

One assay has as its system SF-268 CNS. Description: NCI tumour cell line growth inhibition, 48 h.
Regarding `OCC1CCCC(n2cnc3c(=S)nc[nH]c32)O1` (configuration not stated), the TGI is more than 100 µM.

Molecule `CCCCc1c(O)nc(Nc2nc3ccccc3[nH]2)[nH]c1=O` had a TGI of more than 100 µM.

Turning to `O=C1CC2C=CC(O)C(C1)C2` (configuration not stated), the TGI is more than 100 µM.

The molecule `N#CC1=C(N)OC2=C(CSc3ccccc32)C1c1ccc(Br)cc1` (configuration not stated) had a TGI of 25.6 µM.

`CCC(=O)C(c1ccccc1)c1ccccn1` (configuration not stated) returned a TGI of more than 100 µM.

Consider `Cc1ccc(-c2cc(N)n(-c3nc4c([nH]3)c(=O)n(C)c(=O)n4C)n2)cc1`, for which the TGI is 34.5 µM.

Turning to `Cc1sc2nc3n(c(=O)c2c1C)N=CN(c1ccccc1)C3`, the TGI is more than 100 µM.

The molecule `CC(C)(C)OC(=O)NC(C)(C)C(=O)NCCC(=O)O` gave a TGI of more than 100 µM.

For the molecule `CCOC(=O)CCC(NC(=O)c1ccc(OCc2nc3cc(C(F)(F)F)ccc3nc2-c2ccccc2)cc1)C(=O)OCC` (configuration not stated), the TGI is more than 100 µM.

Consider `CC12CC(c3ccccc3O1)C(C(=O)Nc1ccc(F)cc1)C(=O)N2` (configuration not stated), for which the TGI is more than 100 µM.

`O=c1c2c3ccccc3[nH]c2c2cccc3c2n1CCC3`: the TGI is more than 100 µM.

Turning to `c1ccc([P+](CCNCCNCC[P+](c2ccccc2)(c2ccccc2)c2ccccc2)(c2ccccc2)c2ccccc2)cc1`, the TGI was more than 100 µM.

As for `COc1ccc(-c2c(C#N)c(N)n(C3OC(CO)C(O)C(O)C3O)c(=S)c2C#N)cc1` (configuration not stated), the TGI is more than 100 µM.

As to `CCOC(=O)c1c(NC(=O)c2ccccc2)sc2c1CCCC2`, the TGI was more than 100 µM.

For `CCOc1ccc(N/C(=C(/C(Cl)=C(/Cl)NCCN)[N+](=O)[O-])n2nnc3ccccc32)cc1`, the TGI worked out at 34.5 µM.

`O=C1CC(C(O)CO)CC(=O)N1` (configuration not stated) gave a TGI of more than 100 µM.

In the case of `COc1cc(COC(=O)N[C@H](C(=O)O)C(C)(C)C)c([N+](=O)[O-])cc1OC`, the TGI is more than 100 µM.

`CCN(CC)CCn1c2cc3c(cc2c(=O)c2cccnc21)OCCO3` gave a TGI of more than 10 µM.

Another assay concerns SF-539 CNS. Description: NCI tumour cell line growth inhibition, 48 h.
`Cc1ccc2c(c1)nc(N)n[n+]2[O-]` showed a TGI of more than 100 µM.

With `CCOC(=O)c1cc(C2(O)CCN(Cc3ccccc3)C2=O)c(-c2cc(C)no2)[nH]1` (configuration not stated), the TGI was more than 100 µM.

For `CCOC(=O)c1cc(=C2\CCN(CC(C)CC)C2=S)/c(=C(/O)CC)[nH]1` (configuration not stated), the TGI is 24.9 µM.

Molecule `Cc1ccc2c(c1C)CC1(Cc3c(ccc4c3CCC4)C1=O)C2=O` (configuration not stated) yielded a TGI of more than 100 µM.

`CCCCc1c(O)nc(Nc2nc3ccccc3[nH]2)[nH]c1=O` came in with a TGI of more than 100 µM.

The molecule `O=C1CC2C=CC(O)C(C1)C2` (configuration not stated) showed a TGI of more than 100 µM.

The molecule `N#CC1=C(N)OC2=C(CSc3ccccc32)C1c1ccc(Br)cc1` (configuration not stated) gave a TGI of 13.7 µM.

For the molecule `Cc1ccc(-c2cc(N)n(-c3nc4c([nH]3)c(=O)n(C)c(=O)n4C)n2)cc1`, the TGI was determined as 16 µM.

In turn, `CC(C)(C)OC(=O)NC(C)(C)C(=O)NCCC(=O)O` registered a TGI of more than 100 µM.

Molecule `CCOC(=O)CCC(NC(=O)c1ccc(OCc2nc3cc(C(F)(F)F)ccc3nc2-c2ccccc2)cc1)C(=O)OCC` (configuration not stated) yielded a TGI of more than 100 µM.

For `CC12CC(c3ccccc3O1)C(C(=O)Nc1ccc(F)cc1)C(=O)N2` (configuration not stated), the TGI was more than 100 µM.

For `O=c1c2c3ccccc3[nH]c2c2cccc3c2n1CCC3`, the TGI was more than 100 µM.

Consider `c1ccc([P+](CCNCCNCC[P+](c2ccccc2)(c2ccccc2)c2ccccc2)(c2ccccc2)c2ccccc2)cc1`, for which the TGI was more than 100 µM.

In the case of `COc1ccc(-c2c(C#N)c(N)n(C3OC(CO)C(O)C(O)C3O)c(=S)c2C#N)cc1` (configuration not stated), the TGI is more than 100 µM.

Regarding `CCOC(=O)c1c(NC(=O)c2ccccc2)sc2c1CCCC2`, the TGI was more than 100 µM.

In the case of `CCOc1ccc(N/C(=C(/C(Cl)=C(/Cl)NCCN)[N+](=O)[O-])n2nnc3ccccc32)cc1`, the TGI came to 41.9 µM.

`CC(=O)NC1C(OCc2ccccc2)OC(CO)C(O)C1OCC(=O)N[C@@H](C)C(=O)N[C@H](CCC(=O)NCCNCCNc1c2ccccc2nc2cccc([N+](=O)[O-])c12)C(N)=O` (some centres not stated) came in with a TGI of more than 100 µM.

On to `O=C1CC(C(O)CO)CC(=O)N1` (configuration not stated), for which the TGI was more than 100 µM.

Turning to `c1sc(NC2=NCCO2)c2c1CCCC2`, the TGI was more than 100 µM.

The molecule `COc1cc(COC(=O)N[C@H](C(=O)O)C(C)(C)C)c([N+](=O)[O-])cc1OC` gave a TGI of more than 100 µM.

For the molecule `CCN(CC)CCn1c2cc3c(cc2c(=O)c2cccnc21)OCCO3`, the TGI is more than 10 µM.

A further assay concerns SN12C renal. Briefly: NCI tumour cell line growth inhibition, 48 h.
As for `Cc1ccc2c(c1)nc(N)n[n+]2[O-]`, the TGI was more than 100 µM.

Turning to `O=C1CC(O)c2c1csc2Br` (configuration not stated), the TGI was 87.9 µM.

`CCOC(=O)c1cc(C2(O)CCN(Cc3ccccc3)C2=O)c(-c2cc(C)no2)[nH]1` (configuration not stated) gave a TGI of more than 100 µM.

For the molecule `CCOC(=O)c1cc(=C2\CCN(CC(C)CC)C2=S)/c(=C(/O)CC)[nH]1` (configuration not stated), the TGI stood at 39.2 µM.

In the case of `Cc1ccc2c(c1C)CC1(Cc3c(ccc4c3CCC4)C1=O)C2=O` (configuration not stated), the TGI was more than 100 µM.

Turning to `OCC1CCCC(n2cnc3c(=S)nc[nH]c32)O1` (configuration not stated), the TGI is more than 100 µM.

In turn, `CCCCc1c(O)nc(Nc2nc3ccccc3[nH]2)[nH]c1=O` yielded a TGI of more than 100 µM.

In turn, `O=C1CC2C=CC(O)C(C1)C2` (configuration not stated) gave a TGI of more than 100 µM.

`N#CC1=C(N)OC2=C(CSc3ccccc32)C1c1ccc(Br)cc1` (configuration not stated) yielded a TGI of 20.4 µM.

The molecule `CCC(=O)C(c1ccccc1)c1ccccn1` (configuration not stated) displayed a TGI of more than 100 µM.

Consider `Cc1ccc(-c2cc(N)n(-c3nc4c([nH]3)c(=O)n(C)c(=O)n4C)n2)cc1`, for which the TGI is 27.2 µM.

Regarding `Cc1sc2nc3n(c(=O)c2c1C)N=CN(c1ccccc1)C3`, the TGI is more than 100 µM.

Molecule `CC(C)(C)OC(=O)NC(C)(C)C(=O)NCCC(=O)O` displayed a TGI of more than 100 µM.

`CCOC(=O)CCC(NC(=O)c1ccc(OCc2nc3cc(C(F)(F)F)ccc3nc2-c2ccccc2)cc1)C(=O)OCC` (configuration not stated) registered a TGI of more than 100 µM.

`O=c1c2c3ccccc3[nH]c2c2cccc3c2n1CCC3` came in with a TGI of more than 100 µM.

Turning to `c1ccc([P+](CCNCCNCC[P+](c2ccccc2)(c2ccccc2)c2ccccc2)(c2ccccc2)c2ccccc2)cc1`, the TGI was more than 100 µM.

The molecule `COc1ccc(-c2c(C#N)c(N)n(C3OC(CO)C(O)C(O)C3O)c(=S)c2C#N)cc1` (configuration not stated) had a TGI of more than 100 µM.

Regarding `CCOC(=O)c1sc2nc(SC)nc3c2c1N=CN3c1ccc(Br)cc1`, the TGI is more than 100 µM.

The molecule `CCOC(=O)c1c(NC(=O)c2ccccc2)sc2c1CCCC2` displayed a TGI of more than 100 µM.

In turn, `CCOc1ccc(N/C(=C(/C(Cl)=C(/Cl)NCCN)[N+](=O)[O-])n2nnc3ccccc32)cc1` returned a TGI of more than 100 µM.

`CC(=O)NC1C(OCc2ccccc2)OC(CO)C(O)C1OCC(=O)N[C@@H](C)C(=O)N[C@H](CCC(=O)NCCNCCNc1c2ccccc2nc2cccc([N+](=O)[O-])c12)C(N)=O` (some centres not stated) came in with a TGI of more than 100 µM.

As for `O=C1CC(C(O)CO)CC(=O)N1` (configuration not stated), the TGI is more than 100 µM.

Consider `COc1cc(COC(=O)N[C@H](C(=O)O)C(C)(C)C)c([N+](=O)[O-])cc1OC`, for which the TGI is more than 100 µM.

Molecule `CCN(CC)CCn1c2cc3c(cc2c(=O)c2cccnc21)OCCO3` had a TGI of more than 10 µM.

A further assay deals with SNB-75 CNS. Briefly: NCI tumour cell line growth inhibition, 48 h.
Molecule `Cc1ccc2c(c1)nc(N)n[n+]2[O-]` registered a TGI of more than 100 µM.

For the molecule `O=C1CC(O)c2c1csc2Br` (configuration not stated), the TGI was more than 100 µM.

`CCOC(=O)c1cc(C2(O)CCN(Cc3ccccc3)C2=O)c(-c2cc(C)no2)[nH]1` (configuration not stated) showed a TGI of 85.8 µM.

`CCOC(=O)c1cc(=C2\CCN(CC(C)CC)C2=S)/c(=C(/O)CC)[nH]1` (configuration not stated) yielded a TGI of 36.9 µM.

Values taken from PubChem BioAssay (NCI).
